Experimental data: patent US5208344A, “Naphthalenepropionic acid derivatives as anti-inflammatory/antiallergic agents” (American Home Products Corporation, priority 1991, dated 1993)
Each block holds one molecule with its values, some of them ahead of it.

Legend:
[1] = test system: inflammatory mediator release; assay: reverse passive Arthus pleurisy assay, inflammatory mediator release; assay type: in vivo, rat; details: for ED50 LTB4: 10 min; for % Inh LTB4: 10 mg/kg p.o.; for ED50: Rattus norvegicus, po, read-out: ED50 TxB2
Protocol: The compounds of the invention are further tested in the reverse passive Arthus pleurisy assay to evaluate their effectiveness in inflammatory mediator release and/or the fluid and cellular phases of an inflammatory response.
A reverse passive Arthus reaction is induced in the pleural cavity of male Lewis rats (150-200 g; fasted overnight prior to use) by the intravenous administration of bovine serum albumin (BSA; 4 mg/0.2 ml) followed 30 minutes later by the injection of rabbit anti-BSA (1 mg/0.2 ml; lyophilized IgG fraction; Organon Teknika, West Chester, PA) into the right pleural space under halothane anesthesia. […] Animals are sacrificed at either the time of peak eicosanoid production (i.e. 5 minutes after anti-BSA for immunoreactive TxB2, 10 minutes for immunoreactive LTB4, 20 minutes for immunoreactive LTC4) or at the time of peak neutrophil infiltration (4 hours after anti-BSA) by CO2 inhalation. The pleural cavity is then exposed, the fluid exudate removed by gentle vacuum aspiration and the volume of exudate is recorded. For the determination of cellular infiltration, the pleural cavity is rinsed with 3 ml of 0.1% EDTA in sterile saline, and the recovered wash is pooled with the exudate. Cell number is determined on a model ZBI Coulter counter. For determination of eicosanoid production, undiluted pleural exudate is microfuged and the supernatant is extracted with ethanol (8-10 times volume). Extracts are either stored at -20° C., or are evaporated to dryness under a stream of N2 and reconstituted in radioimmunoassay (RIA) buffer.
Eicosanoids are quantitated by RIA according to the procedure specified by the RIA kit manufacturer (Advanced Magnetics, Cambridge, MA). Briefly, 100 μl of ^3 H-labeled eicosanoid and 100 μl of specific antibody are sequentially added to 100 μl of extracted pleural exudate in BGG-phosphate buffer which contains 0.01 M phosphate, 0.1% bovine gamma globulin and 0.1% sodium azide at pH 7.0. Antibody-bound eicosanoid is separated form unbound eicosanoid by the addition of 750 μl of dextran (0.4%)-coated charcoal (0.4% Norit A) containing 0.1% sodium azide. The mixture is centrifuged at 2000 RPM at 5° C. for 15 minutes to pellet the charcoal and adsorbed unbound eicosanoid. Antibody-bound labeled eicosanoid is quantitated by counting in a liquid scintillation counter, and is correlated to concentration by a standard curve.
Inflammatory cells are expressed as 10^6 cells/ml, pleural exudate is expressed as ml of fluid, and the amount of eicosanoids in the pleural cavity is expressed as ng/ml of exudate. Mean±S.E.M. is determined for each group. Percent inhibition (% I) of cell number, exudate volume and eicosanoid production is calculated for vehicle-treated control groups, and the responses in drug-treated rats are then expressed as the mean $ I of control.

5-lipoxygenase [2] = target: T1, 5-lipoxygenase (Rattus norvegicus, UniProt P12527); assay: inhibition of 5-HETE synthesis by rat glycogen elicited polymorphonuclear leukocytes; assay type: cell-based; details: rat PMN; for inhibition at 10 µM: negative = potentiation of 5-HETE synthesis, read-out: % Inhibition of 5-LO (as 5-HETE)
T1 construct: Peritoneal PMN are obtained from female Wistar rats (150-250 g); endogenous in cells; host or cells: rat glycogen-elicited peritoneal polymorphonuclear leukocytes, intact
T1 sequence (P12527 1-673): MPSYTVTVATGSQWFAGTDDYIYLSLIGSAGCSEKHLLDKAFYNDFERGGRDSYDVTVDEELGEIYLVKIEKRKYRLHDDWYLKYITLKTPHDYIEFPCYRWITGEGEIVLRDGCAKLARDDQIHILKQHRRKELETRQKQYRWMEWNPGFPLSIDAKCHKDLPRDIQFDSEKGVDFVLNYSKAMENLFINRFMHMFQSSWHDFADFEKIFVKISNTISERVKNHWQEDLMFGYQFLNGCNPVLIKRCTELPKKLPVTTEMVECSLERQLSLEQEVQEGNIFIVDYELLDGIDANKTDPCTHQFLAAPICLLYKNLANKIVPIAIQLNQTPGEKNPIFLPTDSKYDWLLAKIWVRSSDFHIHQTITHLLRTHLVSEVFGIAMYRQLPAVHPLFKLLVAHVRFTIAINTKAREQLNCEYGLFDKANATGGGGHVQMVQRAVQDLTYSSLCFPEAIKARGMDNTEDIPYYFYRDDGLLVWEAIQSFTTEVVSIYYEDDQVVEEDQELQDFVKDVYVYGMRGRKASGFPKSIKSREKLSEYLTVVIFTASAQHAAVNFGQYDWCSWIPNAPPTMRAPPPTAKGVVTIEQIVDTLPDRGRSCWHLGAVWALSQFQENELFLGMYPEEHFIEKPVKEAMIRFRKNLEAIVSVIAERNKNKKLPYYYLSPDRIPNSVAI
Protocol: The assay of this Example measures the ability of the compounds of the invention to inhibit the synthesis of 5-HETE by rat glycogen elicited polymorphonuclear leukocytes.
(§1) Peritoneal PMN are obtained from female Wistar rats (150-250 g) that received an i.p. injection of 6% glycogen (10 ml). After 24 hours, rats are killed by CO2 asphysiation and peritoneal cells are harvested by peritoneal lavage using Ca^++ and MG^++ free Hanks' balanced salt solution (HBSS). The peritoneal exudate is centrifuged at 400 g for 10 minutes. After centrifugation, the lavaged fluid is removed and the cell pellet is resuspended in HBSS containing Ca^++ and MG^++ and 10 mM L-cysteine at a concentration of 2×10^7 cells/ml. To 1 ml portions of cell suspension, test drugs or vehicle are added and incubated at 37° C. for 10 minutes. Following this preincubation, the calcium ionophore (10 μM), a23187, is added together with 0.5 μM [14 C] arachidonic acid and further incubated for 10 minutes. The reaction is stopped by the addition of ice cold water (3 ml) and acidifying to pH 3.5. Lipoxygenase products are then extracted twice into diethyl ether. The pooled ether extracts are evaporated to dryness under nitrogen and the residue is redissolved in a small volume of methanol and spotted on aluminum backed pre-coated thin layer chromatographic plates. The samples are then cochromatographed with authentic reference 5-HETE in the solvent system - hexane: ether: acetic acid (50:50:3). After chromatography, the areas associated with 5-HETE standard are identified by autoradiography, cut out and quantitated by liquid scintillation.

cyclooxygenase = assay: inhibition of synthesis of cyclooxygenase products TxB2 and PGE2 (rat polymorphonuclear leukocytes); assay type: cell-based; details: rat PMN; for % Inhibition of CO (as PGE2): 10 μM, negative = potentiation of PGE2 synthesis
Protocol: as §1
However, in order to determine cyclooxygenase activity, the samples are cochromatographed with authentic reference TxB2 and PGE2 in the solvent system ethyl acetate: formic acid (80:1) and the upper phase of ethyl acetate: isooctane: acetic acid: water (110:50:20:100). After chromatography, the areas associated with the TxB2 and PGE2 standards are identified by autoradiography, cut out and quantitated by liquid scintillation techniques.

5-lipoxygenase [3] = target: T2, 5-lipoxygenase (Homo sapiens, UniProt P09917); assay: inhibition of 5-lipoxygenase in human whole blood (LTB4); assay type: cell-based; details: human whole blood
T2 construct: Blood is obtained in 50-100 ml quantities from male donors; endogenous in cells; host or cells: human whole blood (leukocytes) from male donors
T2 sequence (P09917 1-674): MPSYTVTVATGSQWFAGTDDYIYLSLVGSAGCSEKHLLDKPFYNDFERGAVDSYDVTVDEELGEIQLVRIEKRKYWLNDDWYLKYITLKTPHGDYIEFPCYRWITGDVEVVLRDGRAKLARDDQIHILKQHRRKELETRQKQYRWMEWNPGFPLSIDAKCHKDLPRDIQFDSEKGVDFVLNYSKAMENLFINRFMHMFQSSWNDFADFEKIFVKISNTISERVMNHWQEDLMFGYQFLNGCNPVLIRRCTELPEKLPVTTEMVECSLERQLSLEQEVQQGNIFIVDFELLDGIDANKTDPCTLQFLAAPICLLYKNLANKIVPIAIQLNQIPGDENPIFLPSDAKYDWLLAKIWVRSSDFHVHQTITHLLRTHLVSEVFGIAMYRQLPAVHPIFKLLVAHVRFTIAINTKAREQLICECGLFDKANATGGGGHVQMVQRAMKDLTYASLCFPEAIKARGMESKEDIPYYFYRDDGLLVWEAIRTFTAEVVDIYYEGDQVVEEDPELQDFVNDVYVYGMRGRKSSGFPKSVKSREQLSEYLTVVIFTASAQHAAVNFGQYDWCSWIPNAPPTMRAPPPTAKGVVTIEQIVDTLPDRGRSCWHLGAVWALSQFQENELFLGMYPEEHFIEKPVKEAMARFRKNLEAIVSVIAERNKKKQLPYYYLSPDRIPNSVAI
Protocol: The assay of this Example measures the ability of the compounds tested to inhibit 5-lipxygenase in human whole blood.
Blood is obtained in 50-100 ml quantities from male donors. White blood cell counts and differentials are made. Two ml of blood are placed in a 15 ml polypropylene test tube. Compounds are solubilized in dimethylsulfoxide and diluted 1:10 in 10% bovine serum albumin in phosphate buffered saline, pH 7.4 resulting in a final dimethylsulfoxide concentration of 0.1% in the blood. Then, compounds are added to the blood in a shaking water bath at 37° C. for 10 minutes prior to the addition of 30 μM calcium ionophore (A23187; Sigma). After ionophore administration, whole blood samples are mixed and incubated for 20 minutes at 37° C. in a shaking water bath. Incubation is terminated by placing samples in an ice bath and immediately adding ethylene glycol-bis-(β-aminoethyl ether)-N,N,N',N'-tetraacetic acid (10 mM). Samples are mixed and centrifuged at 1200×g for 15 minutes at 4° C. Preparation of samples for evaluation by RIA or ELISA is carried out by the following protocol. Plasma is removed from sample tubes, placed in 15 ml polypropylene test tubes containing 8 ml methanol, and then vortexed to precipitate protein. Samples are stored at -70° C. overnight. The next day, samples are centrifuged at 200×g for 15 minutes at 4° C. to pellet the precipitate. Samples are dried in a Savant speed vac concentrator, reconstituted to original volume with ice cold RIA or ELISA buffer, and stored at -70° C. until assayed. The assay for eicosanoids (LTB4, TxB2, and PGE2) is performed as described by the manufacturer of the [^3 H]-RIA kit or ELISA kit (LTB4 -Amersham, TxB2 and PGE2 - Caymen Chemical).
The total eicosanoid level in 2 ml of blood is calculated and reported as ng/10^6 neutrophils. Significance is determined by a one-way analysis of variance with least significant difference (LSD) comparisons to control (p≤0.05) and IC50 's (μM) are determined by regression analysis (Finney, 1978). Drug effects are expressed as percent change form control values.
Compounds tested in vitro are solubilized in dimethylsulfoxide and diluted 1:10 in 10% bovine serum albumin in phosphate buffer saline resulting in a final dimethylsulfoxide concentration of 0.1% in the blood.

[4] = p.o., 1 hour prior to anti-BSA, rat

Structure (SMILES): CN=C1CCN(c2cccc(C(F)(F)F)c2)N1 [BW540C]
ED50 TxB2 ([1]; p.o., 1 hour prior to anti-BSA, rat, 5 min): 19 mg/kg
ED50 LTB4 [1, 4]: 30 mg/kg

Structure (SMILES): O=C(O)Cc1ccccc1Nc1c(Cl)cccc1Cl [Diclofenac]
% Inh LTB4 ([1]; rat): 0%
ED50 ([1]; 5 min): 6 mg/kg

Structure (SMILES): CC(C(=O)N(C)O)c1ccc2cc(OCc3ccc4ccccc4n3)ccc2c1 (stereo not drawn) [Example 23, N-Hydroxy-α-N-dimethyl-6-(2-quinolinylmethoxy)-2-naphthaleneacetamidedihydrate]
inhibition at 10 µM (5-lipoxygenase [2]): 75%
% Inhibition of CO (as PGE2) (cyclooxygenase): 17%
inhibition at 5 µM (5-lipoxygenase [3]; 5 μM, read-out: % Inhibition of LTB4): 45%

Structure (SMILES): CONC(=O)C(C)c1ccc2cc(OCc3ccc4ccccc4n3)ccc2c1 (stereo not drawn) [Example 30, N-methoxy-α-methyl-6-(2-quinolinylmethoxy)-2-naphthaleneacetamide]
inhibition at 10 µM (5-lipoxygenase [2]): 92%
% Inhibition of CO (as PGE2) (cyclooxygenase): -27%
inhibition at 50 µM (5-lipoxygenase [3]): 13%

Structure (SMILES): CC(C(=O)O)c1cccc(C(=O)c2ccccc2)c1 (centres unmarked) [Ketoprofen]
% Inh LTB4 ([1]; rat): 35%
ED50 ([1]; 5 min): 0.18 mg/kg

Structure (SMILES): C[C@H](C(=O)O)c1ccc2cc(OCc3ccc4ccccc4n3)ccc2c1.NC(CO)(CO)CO [Wy-50,295-A]
% Inh TxB2 ([1]; 75 mg/kg p.o., rat): 0%
ED50 LTB4 [1, 4]: 15 mg/kg

Further lines, with some results ahead:

inhibition at 10 µM (5-lipoxygenase [2]): 87%
Structure (SMILES): CC(C)(C(=O)O)c1ccc2cc(OCc3ccc4ccccc4n3)ccc2c1 [Example 22, α,α-Dimethyl-6-(2-quinolinylmethoxy)-2-naphthaleneacetic acid]
% Inhibition of CO (as PGE2) (cyclooxygenase): -28%

inhibition at 10 µM (5-lipoxygenase [2]): 100%
inhibition at 25 µM (5-lipoxygenase [3]; 25 μM): 45%
Structure (SMILES): Cc1ccc(S(=O)(=O)NC(=O)C(C)c2ccc3cc(OCc4ccc5ccccc5n4)ccc3c2)cc1 (stereo not drawn) [Example 25, α-Methyl-N-[(4-methylphenyl)sulfonyl]-6-(2-quinolinylmethoxy)-2-naphthaleneacetamide]
% Inhibition of CO (as PGE2) (cyclooxygenase): -103%

inhibition at 10 µM (5-lipoxygenase [2]): 97%
inhibition at 100 µM (5-lipoxygenase [3]; 100 μM): 8%
Structure (SMILES): C[C@H](CO)c1ccc2cc(OCc3ccc4ccccc4n3)ccc2c1 [Example 26, (S)-β-methyl-6-(2-quinolinylmethoxy)-2-naphthalene ethanol]
% Inhibition of CO (as PGE2) (cyclooxygenase): 5%

inhibition at 10 µM (5-lipoxygenase [2]): 100%
Structure (SMILES): C[C@H](C=O)c1ccc2cc(OCc3ccc4ccccc4n3)ccc2c1 [Example 27, (S)-α-methyl-6-(2-quinolinylmethoxy)-2-naphthaleneacetaldehyde]
% Inhibition of CO (as PGE2) (cyclooxygenase): -62%

IC50 (5-lipoxygenase [2]; read-out: IC50 (inhibition of 5-LO, as 5-HETE)): 430 nM
IC50 (cyclooxygenase; read-out: IC50 (inhibition of CO, as PGE2)): > 10000 nM
Structure (SMILES): COC(=O)C(C)c1ccc2cc(OCc3ccc4ccccc4n3)ccc2c1 (stereo not drawn) [Example 28, α-Methyl-6-(2-quinolinylmethoxy)-2-naphthaleneacetic acid methyl ester]

inhibition at 10 µM (5-lipoxygenase [2]): 91%
inhibition at 50 µM (5-lipoxygenase [3]): 24%
Structure (SMILES): COC(=O)[C@@H](C)c1ccc2cc(OCc3ccc4ccccc4n3)ccc2c1 [Example 29, (S)α-methyl-6-(2-quinolinylmethoxy)-2-naphthaleneacetic acid methyl ester]
% Inhibition of CO (as PGE2) (cyclooxygenase): -17%
